From patent US9174968B2, “Pyrimidinone compounds for use in the treatment of diseases or conditions mediated by LP-PLA2” (GLAXO GROUP LIMITED, priority 2010, dated 2015)

Tests used:
[1] = tested on: proinflammatory (M1) and anti-inflammatory (M2) markers in macrophages; assay: Experimental autoimmune encephalomyelitis (EAE) model, ex vivo analysis of M1 and M2 markers by realtime PCR; assay type: in vivo, rats; details: EAE induced with MBP, splenic macrophages day 13 and CNS infiltrating macrophages
Procedure: A further study was carried out to study the impact of Lp-PLA2 inhibitors on modulating M1/M2 imbalance. In this study, rats were induced to develop experimental autoimmune encephalomyelitis (EAE) by immunization with myelin basic protein (MBP) antigen and treated with a known Lp-PLA2 inhibitor: 5-((9-Methoxy-4-oxo-6,7-dihydro-4H-pyrimido[6,1-a]isoquinolin-2-yl)oxy)-2-(3-(trifluoromethyl)phenoxy)benzonitrile (See PCT application no. PCT/CN2011/001597) For preventive treatment, compound administration started at day 0 whereas it started at 7 day in therapeutic treatment. Rats were subsequently monitored for symptoms of EAE. Rats were immunized with MBP to develop EAE and symptoms were monitored daily. Plasma Lp-PLA2 activity and LysoPC concentration were determined at different time points through the course of EAE.
Ex vivo analysis of proinflammatory (M1) and anti-inflammatory (M2) markers in control and compound treated EAE […]. Splenic macrophages were harvested at day 13 post MBP-immunization and assayed for expression of a variety of markers by realtime PCR. CNS infiltrating cells were harvested and macrophages were analyzed for expression of M1 and M2 markers by realtime PCR.

[2] = target: T1, Lp-PLA2 from plasma (pooled human plasma) (Homo sapiens, UniProt Q13093); assay: Lp-PLA2 human plasma assay (Thio-PAF assay); assay type: biochemical; details: read-out: pIC50 in the thio-PAF assay (converted)
T1 construct: from tissue; host or cells: pooled human plasma
T1 sequence (Q13093 22-441): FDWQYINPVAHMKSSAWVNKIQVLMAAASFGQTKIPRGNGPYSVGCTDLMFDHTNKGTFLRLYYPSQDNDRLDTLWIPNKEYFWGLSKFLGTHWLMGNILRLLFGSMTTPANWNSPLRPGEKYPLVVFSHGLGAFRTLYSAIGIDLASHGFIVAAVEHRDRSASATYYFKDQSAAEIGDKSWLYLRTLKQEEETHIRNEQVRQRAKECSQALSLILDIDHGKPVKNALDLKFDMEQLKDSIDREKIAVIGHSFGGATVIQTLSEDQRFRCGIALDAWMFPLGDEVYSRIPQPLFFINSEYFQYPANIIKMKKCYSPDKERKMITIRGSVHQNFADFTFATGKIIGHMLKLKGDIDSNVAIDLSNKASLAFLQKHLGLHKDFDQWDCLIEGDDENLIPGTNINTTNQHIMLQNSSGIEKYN
Source text: (3) Lipoprotein-Associated Phospholipase A2 (Lp-PLA2) Human Plasma Assay (Also Referred to as “Thio-PAF Assay”)
The human plasma assay utilizes a thioester analog of PAF (phosphatidylcholine), where hydrolysis yields to the formation of a phospholipid containing a free thiol group. The amount of thiol is quantitated continuously by reacting with CPM (7-diethylamino-3-(4′-maleimidylphenyl)-4-methylcoumarin), a maleimide which increases in fluorescence after Michael addition of thiols. This assay may detect the activity of Lp-PLA2 from plasma, as determined by specific inhibition by Lp-PLA2 inhibitors.
The thio-PAF assay was run as a quenched 15 μL assay. Compounds source plate was prepared by making 1:3 (by volume) serial dilution of the compounds into pure DMSO on 384-well microplate. 0.01 μL of compounds on compound source plate were transferred to 384 well Greiner 784076 (black) low-volume plates by ECHO liquid dispenser. 8 μL pooled human plasma, which was previously aliquoted and frozen, was added. Plates were centrifuged for 10 sec at 500 rpm. After 30 minutes preincubation, 2 μL of substrate (2.5 mM thio-PAF, 3.2 mM NEM (N-ethylmaleimide) [made fresh daily in DMSO], and 32 μM CPM [from a DMSO stock] in assay buffer of 50 mM HEPES, pH7.4, 150 mM NaCl, 1 mM CHAPS was added to 384 well Greiner 784076 (black) low-volume plates by BRAVO liquid handling station. Plates were centrifuged for 10 sec at 500 rpm. Plate was covered to protect from light and incubated for 2 min at room temperature. Reaction was quenched with 5 μL of 5% aqueous trifluoroacetic acid (TFA). Plates were covered to protect from light and incubated for 40 min at room temperature. Plates were read at ex: 380/em: 485 using-Envision microplate reader. PIC50 data, curve and QC analysis was conducted by using XLFit module in Excel.
All exemplified compounds of the present invention were tested in thio-PAF assay or similar assay as described above.

[3] = target: T2, recombinant human Lp-PLA2 (Homo sapiens, UniProt Q13093); assay: Recombinant human Lp-PLA2 assay (rhLp-PLA2, PED6 assay); assay type: biochemical; details: upper limit for pIC50 obtained in this assay is 9.3
T2 sequence (Q13093 22-441): T1 sequence (Q13093 22-441)
Source text: (1) Recombinant Human Lp-PLA2 Assay (rhLp-PLA2) (Also Referred to as “PED6” Assay)
N-((6-(2,4-dinitrophenyl)amino)-hexanoyl)-2-(4,4-difluoro-5,7-dimethyl-4-bora-3a,4a-diaza-s-indacene-3-pentanoyl)-1-hexadecanoyl-sn-glycero-3-phosphoethanolamine, triethylammonium salt (PED6) is a commercially available fluorescently-labelled phospholipid, which is commercially available from Molecular Probes. There is a quenching para-nitro phenyl (PNP) group in the sn3 position and a Bodipy fluorescein (FL) group in the sn2 position. Upon cleavage with Lp-PLA2, the Bodipy F1 group is liberated and then may result in an increase in fluorescence.
The PED6 assay was run as an unquenched 10 μL assay. Compounds source plate was prepared by making 1:3 (by volume) serial dilution of the compounds into pure DMSO on 384-well microplate. […] 5 μL of recombinant human Lp-PLA2 enzyme (2 nM rhLp-PLA2 in assay buffer of 50 mM HEPES, pH7.4, 150 mM NaCl, 1 mM CHAPS) was added to each well of the plate with compounds. Plates were centrifuged for 10 sec at 500 rpm. […] Plates were centrifuged for 10 sec at 500 rpm. Plate was covered to protect from light and incubated for 20 min at room temperature. […] PIC50 data, curve and QC analysis was conducted by using XL fit module in Excel.

Row | Compound | M1 markers (proinflammatory) expression [1] | M2 markers (anti-inflammatory) expression [1] | IC50 [2] [µM] | IC50 [3] [µM]
1 | COc1ccc2c(c1)CCn1c-2cc(Oc2ccc(Oc3cccc(C(F)(F)F)c3)c(C#N)c2)nc1=O [5-((9-Methoxy-4-oxo-6,7-dihydro-4H-pyrimido[6,1-a]isoquinolin-2-yl)oxy)-2-(3-(trifluoromethyl)phenoxy)benzonitrile] | decrease | increase |  | 
2 | CCc1c[nH]c(CCc2ccc(Oc3cccc(C(F)(F)F)c3)cc2)nc1=O [E37, 5-ethyl-2-(4-(3-(trifluoromethyl)phenoxy)phenethyl)pyrimidin-4(1H)-one] |  |  | > 10 | > 10
3 | CCc1c[nH]c(CCc2ccc(Oc3ccc(F)cc3)cc2)nc1=O [E46, 5-ethyl-2-(4-(4-fluorophenoxy)phenethyl)pyrimidin-4(1H)-one] |  |  |  | > 10
4 | COc1ncc(Cc2c[nH]c(OCCc3ccc(Oc4ncccn4)cc3)nc2=O)cn1 [E147, 5-((2-methoxypyrimidin-5-yl)methyl)-2-(4-(pyrimidin-2-yloxy)phenethoxy)pyrimidin-4(1H)-one] |  |  | > 10 | > 10
5 | CCc1c[nH]c(OCCc2ccc(Oc3c(F)cc(Cl)cc3F)cc2)nc1=O [E180, 2-(4-(4-chloro-2,6-difluorophenoxy)phenethoxy)-5-ethylpyrimidin-4(1H)-one] |  |  | > 10 | > 10
